pIC50: −log10 of the molar value. ≈ marks a conversion by molar mass, not a printed value. Where “and” joins values, the source holds several entries; their conditions need not be identical. Identical values can stand only once.
Columns and labels:
C. difficile 630Δerm = test: Simplified agar dilution susceptibility of C. difficile carrying plasmid-based polC alleles; type: cell-based, Clostridioides difficile; conditions: for MIC: Clostridioides difficile, 48 h
Procedure: E. coli strains were cultured aerobically at 37 °C at 180 rpm in Lysogeny Broth (LB) (1% w/v tryptone (Oxoid), 1% w/v NaCl (J.T.Baker), 0.5% w/v yeast extract). C. difficile strains were cultured in Brain Heart Infusion broth (BHI) (3.7% w/v brain heart infusion broth (Oxoid), 0.5% w/v yeast extract). Culturing of C. difficile was carried out anaerobically at 37 °C at 140 rpm in an atmosphere of 85% N2, 10% CO2, and 5% H2, using a Don Whitley VA1000 workstation. For solid media, 1.5% w/v agar (Alfa Aesar) was used. Where appropriate, media were supplemented with 50 mg/L colistin (Cayman Chemical), chloramphenicol (10 mg/L for liquid medium and 20 mg/L for agar plates), 30 mg/L kanamycin, and 15 mg/L thiamphenicol.
DNA fragments were amplified by PCR from total genomic DNA of C. difficile strain 630Δerm[40] with Q5 High-Fidelity DNA Polymerase (NEB), using oligonucleotides oNM-001/oNM-003 (amplifying the polC gene with its presumptive promoter). The oNM-001/oNM-003 PCR fragment was digested using KpnI (Roche) and BamHI (Thermo Scientific). Digesting of plasmid pAP24[65] with enzymes allowed for the isolation of plasmid backbone after agarose gel electrophoresis. The backbone was ligated to the digested PCR fragments and transformed into chemically competent DH5α E. coli cells by heat shock; transformants were selected on media containing chloramphenicol. To generate plasmids carrying variant polC genes, mutations were introduced in the plasmids harbouring wild-type polC using QuikChange Site-Directed Mutagenesis and verified by Sanger sequencing using primers listed in Supplementary Table 3. An overview of all constructed plasmids and strains can be found in Supplementary Table 4 and 5.
E. coli donor strain CA434 was transformed with the plasmid to be transferred and subsequently grown on agar plates containing chloramphenicol and kanamycin. A 1 mL aliquot of 20 h grown liquid E. coli transformant culture was pelleted by centrifugation (2 min at 10,000 x g) and cells were resuspended in 200 µL non-sporulating C. difficile 630Δerm culture. The mixture was plated onto non-selective BHI agar in 5 µL spots and after 20 h incubation, cells were harvested in 1 mL pre-reduced phosphate-buffered saline and plated in 100 µL aliquots on BHI agar supplemented with thiamphenicol and colistin. Putative transconjugants were confirmed by PCRs with primers oWKS-1070 and oWKS-1071 (targeting chromosomal gluD) and oWKS-1387, oWKS-1388, oWKS-1389, and oWKS-1390 (targeting traJ or repA on the plasmid). Note that these strains are merodiploid and carry a wild-type chromosomal copy of polC.
Susceptibilities of the parental and plasmid-carrying strains to IBZ and ACX-801 were determined using a simplified agar dilution method. In short, C. difficile strains were cultured for 20 h in liquid BHI. Bacterial cells were harvested by 10-min centrifugation at 3220 x g and resuspended in pre-reduced phosphate-buffered saline to a McFarland turbidity standard of 1.0. Suspensions were inoculated as 5 µL spots onto BHI agar containing different concentrations of inhibitor (0, 2, 4, 8, 16, 32, 64 mg/L). MICs (defined as the first dilution with severely impaired or no visible growth) were determined after 48 h and imaged on a SCAN500 plate imager (Interscience).

E. coli Pol IIIα = target: T1, E. coli Pol IIIα (Escherichia coli, UniProt P10443); test: Real-time DNA primer extension assay; type: biochemical; parameters: key to rate of activity (slope of fluorescence intensity change over time): slope of fluorescence intensity change per second (made positive); conditions: for rate of activity (slope of fluorescence intensity change over time): Fig. 1f source data, E. coli PolIIIα; for pIC50: Fig. 1f, n = 3, read-out: PolIIIα IC50
T1 construct: made in house
From the text: DnaE from E. coli was purified as described before[33],[34].
Polymerase activity was monitored in real-time[31],[32] with a 42-nt long 5’ carboxyfluorescein-labelled DNA oligonucleotide template strand (DNASP8_42) annealed to a 30-nt primer oligonucleotide (oMU014). Polymerase activity in this assay is monitored by measuring fluorescence quenching of the labelled DNA template as a result of primer extension by PolC (for details see Supplementary Fig. 1b, c). Both primers were HPLC purified. Primer extension assays were performed in Reaction Buffer (see Gel-based polymerase and exonuclease assays) supplemented with 0.5 mg/mL BSA, 0.05% Tween20 and 25 uM of each dNTP (SRB) in 384-well Black Round Bottom plates (Corning 4514). The polymerase was diluted in the SRB and incubated for at least 5 min in the presence of inhibitor or solvent, with a final solvent concentration of 1%. The reaction was initiated by the addition of an equal volume of DNA substrate in SRB as described below. Fluorescence emission data was collected with a BMG Labtech PHERAstar FSX reader for 30 min at room temperature.
Compounds were dispensed with an Echo acoustic liquid handler (Beckman Coulter). All compounds were dissolved to 1 mM and 10 mM stocks in 100% DMSO and transferred to Echo LDV or PP source plates (Labcyte, Inc., CA), then dispensed to 384-well plates with a Labcyte Echo550 or Echo650 acoustic dispenser at volumes of 2.5 to 100 nL per well. […] A Mantis microfluidic liquid dispenser (Formulatrix) was used to dispense 5 µL polymerase and 5 µL substrate DNA (individually diluted in SRB) per well. […] The final concentration of DNA was 70 nM.
Data were analysed and standard error of the means (SEM) determined in Prism 8.4.2 and 10.2.3 (GraphPad). Raw time-course polymerase activity was plotted against time, with SEM of triplicates determined. The rate of activity (represented by signal quenching) was determined during the first 8 min (linear stage) by calculating the slope of fluorescence intensity change (converted to a positive value) over time (in seconds). The slopes were then normalized to percentage activity (%); per ‘replicate range’, 100% activity was defined as polymerase activity in the absence of inhibitor (polymerase control), and 0% activity was determined in the absence of polymerase (DNA signal; negative control). The SEM was determined between ‘replicate ranges’. The IC50 was determined using the dose-response (inhibition) nonlinear regression ‘[Inhibitor] vs. response (three parameters)’ without constraints.

[1] = plasmid carrying polC-p.F1258I versus wild-type strain
[2] = plasmid carrying polC-p.F1258L versus wild-type strain
[3] = plasmid carrying polC-p.F1258S versus wild-type strain

T1 sequence (P10443 whole entry): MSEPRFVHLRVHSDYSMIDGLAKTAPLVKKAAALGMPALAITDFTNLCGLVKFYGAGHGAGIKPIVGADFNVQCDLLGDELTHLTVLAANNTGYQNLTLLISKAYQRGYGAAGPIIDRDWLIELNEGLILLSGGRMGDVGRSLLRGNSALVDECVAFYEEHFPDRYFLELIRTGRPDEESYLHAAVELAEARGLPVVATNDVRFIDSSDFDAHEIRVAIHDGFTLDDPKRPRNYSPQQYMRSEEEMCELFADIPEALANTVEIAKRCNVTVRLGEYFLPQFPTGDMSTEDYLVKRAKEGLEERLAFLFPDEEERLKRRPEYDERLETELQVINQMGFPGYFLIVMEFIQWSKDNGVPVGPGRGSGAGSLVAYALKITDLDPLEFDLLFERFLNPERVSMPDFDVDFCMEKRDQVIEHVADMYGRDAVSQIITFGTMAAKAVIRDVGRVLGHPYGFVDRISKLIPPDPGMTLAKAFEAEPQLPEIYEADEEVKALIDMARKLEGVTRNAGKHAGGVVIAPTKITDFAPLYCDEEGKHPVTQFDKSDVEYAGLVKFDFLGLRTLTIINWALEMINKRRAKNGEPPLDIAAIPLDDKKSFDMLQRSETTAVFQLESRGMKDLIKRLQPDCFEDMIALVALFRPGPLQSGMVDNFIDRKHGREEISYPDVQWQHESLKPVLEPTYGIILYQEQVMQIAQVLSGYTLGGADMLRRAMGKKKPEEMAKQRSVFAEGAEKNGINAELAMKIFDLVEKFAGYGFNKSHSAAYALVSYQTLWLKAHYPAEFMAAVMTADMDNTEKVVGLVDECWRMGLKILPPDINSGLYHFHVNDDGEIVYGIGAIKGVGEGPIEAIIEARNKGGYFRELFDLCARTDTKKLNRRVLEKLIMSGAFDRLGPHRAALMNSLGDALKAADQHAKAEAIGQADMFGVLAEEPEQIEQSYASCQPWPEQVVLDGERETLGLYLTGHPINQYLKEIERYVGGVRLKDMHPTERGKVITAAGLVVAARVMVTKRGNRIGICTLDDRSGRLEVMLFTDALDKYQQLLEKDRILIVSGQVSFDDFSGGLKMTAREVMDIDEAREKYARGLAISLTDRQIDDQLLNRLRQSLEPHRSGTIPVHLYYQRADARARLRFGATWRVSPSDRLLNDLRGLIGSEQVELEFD

SMILES	MIC (C. difficile 630Δerm) [µg/mL]	increase in the MIC (C. difficile 630Δerm; plasmid carrying polC-p.A1263T versus wild-type strain)	increase of MIC (C. difficile 630Δerm; [1]) [fold]	increase of MIC (C. difficile 630Δerm; [2]) [fold]	increase of MIC (C. difficile 630Δerm; [3]) [fold]	rate of activity (slope of fluorescence intensity change over time) (E. coli Pol IIIα; inhibitor 2.5 uM)	rate of activity (slope of fluorescence intensity change over time) (E. coli Pol IIIα; inhibitor 4 uM)	rate of activity (slope of fluorescence intensity change over time) (E. coli Pol IIIα; inhibitor 12.5 uM)	rate of activity (slope of fluorescence intensity change over time) (E. coli Pol IIIα; inhibitor 20 uM)	rate of activity (slope of fluorescence intensity change over time) (E. coli Pol IIIα; inhibitor 30 uM)	rate of activity (slope of fluorescence intensity change over time) (E. coli Pol IIIα; inhibitor 45 uM)	rate of activity (slope of fluorescence intensity change over time) (E. coli Pol IIIα; inhibitor 67.5 uM)	rate of activity (slope of fluorescence intensity change over time) (E. coli Pol IIIα; inhibitor 100 uM)	pIC50 (E. coli Pol IIIα)
O=c1[nH]c(NCc2ccc3c(c2)OC(F)(F)O3)nc2c(F)nn(CCO)c12 [ACX-801, 5-(((2,2-difluorobenzo[d][1,3]dioxol-5-yl)methyl)amino)-3-fluoro-1-(2-hydroxyethyl)-1,6-dihydro-7H-pyrazolo[4,3-d]pyrimidin-7-one]	2 (≈ 5.22 µM)	fourfold	32	≥ 32	4	16.3 and 12.4 and 15.4	16.6 and 16.5 and 16.7	21.1 and 17.1 and 17.2	17.9 and 17.4 and 20.0	18.5 and 16.7 and 17.5	13.8 and 14.5 and 13.7	17.1 and 17.3 and 12.6	15.2 and 13.3 and 12.6	< 4.00
O=c1[nH]c(NCc2ccc(Cl)c(Cl)c2)nc2ncn(CCN3CCOCC3)c12 [IBZ, N^2-(3,4-dichlorobenzyl)-7-(2-[1-morpholinyl]ethyl)guanine]	2 (≈ 4.72 µM)		8	32	2	18.2 and 16.5 and 13.6	15.9 and 17.9 and 15.0	25.0 and 21.1 and 24.7	29.3 and 21.9 and 23.5	26.6 and 21.8 and 26.2	27.8 and 27.6 and 30.0	28.5 and 30.7 and 23.6	31.4 and 35.8 and 26.7	< 4.00
